Broadly, the EC50 is the concentration that produces a half-maximal response.

Data on 20 compounds can be found in patent EP4635944A1, “2-AZABICYCLO[3.1.1]HEPTANE COMPOUND” (Daiichi Sankyo Company, Limited, priority 2022, dated 2024).

The assay deals with T1, human OX2R (Homo sapiens, UniProt O43614).
T1 construct: host or cells: CHO-K1 (Chinese Hamster Ovary K1)
T1 sequence (O43614 1-444): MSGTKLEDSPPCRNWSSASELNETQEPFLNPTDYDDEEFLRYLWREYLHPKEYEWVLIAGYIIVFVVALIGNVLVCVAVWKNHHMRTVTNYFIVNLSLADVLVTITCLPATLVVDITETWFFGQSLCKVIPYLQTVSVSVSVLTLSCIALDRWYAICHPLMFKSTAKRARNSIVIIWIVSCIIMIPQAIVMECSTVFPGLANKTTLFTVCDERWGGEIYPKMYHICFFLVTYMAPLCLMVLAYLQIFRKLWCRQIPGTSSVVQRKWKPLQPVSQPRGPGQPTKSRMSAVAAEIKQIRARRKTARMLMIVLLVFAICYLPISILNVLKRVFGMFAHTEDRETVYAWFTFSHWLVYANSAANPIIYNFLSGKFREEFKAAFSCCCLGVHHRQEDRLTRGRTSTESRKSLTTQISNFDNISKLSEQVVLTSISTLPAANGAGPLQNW
Description: Evaluation of OX2R agonist activity (intracellular calcium, CHO-K1 cells with forced expression of human OX2R). It counts as cell-based. As to conditions: CHO-K1 cells expressing human OX2R; 100% = 5 µM of the reference compound; read-out: hOX2R EC50. Here is the method:
Evaluation of OX2R agonist activity
Chinese Hamster Ovary K1 (CHO-K1) cells (GenScript) with forced expression of human OX2R were seeded onto a 384 well microplate (Corning) at 7500 cells/well and cultured for 24 hours. 20 µL of the loading buffer (25 mM HEPES containing 1.25 mM of Probenecid and 2.5 µg/mL of Fluo 4-AM at final concentration, Hank's balanced salt solution, 0.06% Pluronic F-127, Quenching buffer) in the Calcium Kit II (DOJINDO LABORATORIES) was added, and the microplate was allowed to stand for 30 minutes. A reference compound (Example435 of WO 2019/027058, N-[(2S,3S)-2-[[3-(3,5-difluorophenyl)-2-fluoro-phenyl]methyl]-1-(2-hydroxy-2-methylpropanoyl)pyrrolidin-3-yl]ethanesulfonamide) or the test compound was added in 10 µL, and changes in intracellular calcium ion concentration were measured using FDSS7000EX (Hamamatsu Photonics K.K.) as a fluorescence intensity ratio obtained upon dual wavelength excitation at 480 nm and 540 nm. Note that the reference compound or test compound was dissolved in DMSO (final concentration of DMSO was 0.5%) and diluted with an assay buffer (20 mM HEPES, Hank's balanced salt solution, 0.1% BSA). The difference between the maximum and minimum fluorescence values between 5 and 7 seconds after the addition of the test compound or reference compound was used as the indicator. The value of wells to which the assay buffer containing no test compound was added was defined as 0%, and the value of wells to which 5 µM of the reference compound was added was defined as 100%. The 50% effective concentration (EC50 value) was determined from the values obtained when various concentrations of the test compound were added. […]
For orientation: Calcium assays in cells follow changes in intracellular calcium, usually with a dye or a luminescent sensor.
`C[C@@H](O)C(=O)N1C2CC(C2)[C@H](NS(=O)(=O)C2CC2)[C@@H]1Cc1cccc(-c2ccccc2)c1F` [Example 44, N-{(3S,4S)-3-[(2-Fluoro[biphenyl]-3-yl)methyl]-2-[(2R)-2-hydroxypropanoyl]-2-azabicyclo[3.1.1]heptan-4-yl}cyclopropanesulfonamide]: the 50% effective concentration (EC50) came to 22 nM. The same measure for `CCOC(=O)N1C2CC(C2)[C@H](NS(C)(=O)=O)[C@@H]1Cc1cccc(-c2ccccc2)c1F` [Example 65, Ethyl (3S,4S)-3-[(2-fluoro[biphenyl]-3-yl)methyl]-4-[(methylsulfonyl)amino]-2-azabicyclo[3.1.1]heptane-2-carboxylate]: 393 nM. Take `CS(=O)(=O)N[C@@H]1[C@H](Cc2cccc(-c3ccccc3)c2F)N(C(=O)[C@@H]2CC2(F)F)C2CC1(F)C2` [Example 78, N-{(3S,4R)-2-{[(1S)-2,2-Difluorocyclopropyl]carbonyl}-5-fluoro-3-[(2-fluoro[biphenyl]-3-yl)methyl]-2-azabicyclo[3.1.1]heptan-4-yl}methanesulfonamide]: the 50% effective concentration (EC50) is 69 nM.

As for `C[C@@H](O)C(=O)N1C2CC(F)(C2)C(NS(C)(=O)=O)C1Cc1cccc(-c2cc(F)cc(F)c2)c1F` (single isomer, unassigned) [Example 23, N-{(3S,4R)-5-Fluoro-2-[(2R)-2-hydroxypropanoyl]-3-[(2,3',5'-trifluoro[biphenyl]-3-yl)methyl]-2-azabicyclo[3.1.1]heptan-4-yl}methanesulfonamide or N-{(3R,4S)-5-fluoro-2-[(2R)-2-hydroxypropanoyl]-3-[(2,3',5'-trifluoro[biphenyl]-3-yl)methyl]-2-azabicyclo[3.1.1]heptan-4-yl}methanesulfonamide], the EC50 is 34 nM. With `CC[C@@H](O)C(=O)N1C2CC(C2)[C@H](NS(C)(=O)=O)[C@@H]1Cc1cccc(-c2cc(F)cc(F)c2)c1F` [Example 26, N-{(3S,4S)-2-[(2R)-2-Hydroxybutanoyl]-3-[(2,3',5'-trifluoro[biphenyl]-3-yl)methyl]-2-azabicyclo[3.1.1]heptan-4-yl}methanesulfonamide], the EC50 came to 35 nM. The figure for `CS(=O)(=O)N[C@@H]1[C@H](Cc2cccc(-c3ccccc3)c2F)N(C(=O)c2cocn2)C2CC1(F)C2` [Example 55, N-[(3S,4R)-5-Fluoro-3-[(2-fluoro[biphenyl]-3-yl)methyl]-2-(1,3-oxazol-4-ylcarbonyl)-2-azabicyclo[3.1.1]heptan-4-yl]methanesulfonamide] is 591 nM; for `CCC(=O)N1C2CC(C2)[C@H](NS(C)(=O)=O)[C@@H]1Cc1cccc(-c2ccccc2)c1F` [Example 56, N-{(3S,4S)-3-[(2-Fluoro[biphenyl]-3-yl)methyl]-2-propanoyl-2-azabicyclo[3.1.1]heptan-4-yl}methanesulfonamide] it is 244 nM; for `CO[C@H](C)C(=O)N1C2CC(C2)[C@H](NS(C)(=O)=O)[C@@H]1Cc1cccc(-c2cc(F)cc(F)c2)c1F` [Example 48, N-{(3S,4S)-2-[(2R)-2-Methoxypropanoyl]-3-[(2,3',5'-trifluoro[biphenyl]-3-yl)methyl]-2-azabicyclo[3.1.1]heptan-4-yl}methanesulfonamide] it is 33 nM.

On to `CS(=O)(=O)N[C@H]1C2CC(C2)N(C(=O)C(O)C(F)F)[C@H]1Cc1cccc(-c2ccccc2)c1F` (single isomer, unassigned) [Example 72], for which the half-maximal effective concentration (EC50) stood at 112 nM. With `CC(C)(O)C(=O)N1C2CC(C2)[C@H](NS(C)(=O)=O)[C@@H]1Cc1cccc(-c2cccc(Cl)n2)c1F` [Example 21, N-[(3S,4S)-3-[3-(6-Chloropyridin-2-yl)-2-fluorobenzyl]-2-(2-hydroxy-2-methylpropanoyl)-2-azabicyclo[3.1.1]heptan-4-yl]methanesulfonamide], the concentration giving a half-maximal response (EC50) was 217 nM.

As for `CS(=O)(=O)N[C@H]1C2CC(C2)N(C(=O)C2(CO)CC2)[C@H]1Cc1cccc(-c2ccccc2)c1F` [Example 73, N-[(3S,4S)-3-[(2-Fluoro[biphenyl]-3-yl)methyl]-2-{[1-(hydroxymethyl)cyclopropyl]carbonyl}-2-azabicyclo[3.1.1]heptan-4-yl]methanesulfonamide], the concentration giving a half-maximal response (EC50) amounted to 50 nM. The figure for `CS(=O)(=O)N[C@H]1C2CC(C2)N(C(=O)[C@H](O)CF)[C@H]1Cc1cccc(-c2ccccc2)c1F` [Example 75, N-{(3S,4S)-3-[(2-Fluoro[biphenyl]-3-yl)methyl]-2-[(2S)-3-fluoro-2-hydroxypropanoyl]-2-azabicyclo[3.1.1]heptan-4-yl}methanesulfonamide] is 78 nM; for `CS(=O)(=O)N[C@@H]1[C@H](Cc2cc(F)cc(-c3cccc(Cl)c3)c2F)N(C(=O)[C@H](O)C(F)(F)F)C2CC1(F)C2` (single isomer, unassigned) [Example 82] it is 79 nM. Take `CS(=O)(=O)N[C@H]1C2CC(C2)N(C(=O)CO)[C@H]1Cc1cccc(-c2cc(F)cc(F)c2)c1F` [Example 34, N-{(3S,4S)-2-(Hydroxyacetyl)-3-[(2,3',5'-trifluoro[biphenyl]-3-yl)methyl]-2-azabicyclo[3.1.1]heptan-4-yl}methanesulfonamide]: the concentration for a half-maximal effect (EC50) came to 289 nM. For the compound `COCC(=O)N1C2CC(C2)[C@H](NS(C)(=O)=O)[C@@H]1Cc1cccc(-c2cc(F)cc(F)c2)c1F` [Example 28, N-{(3S,4S)-2-(Methoxyacetyl)-3-[(2,3',5'-trifluoro[biphenyl]-3-yl)methyl]-2-azabicyclo[3.1.1]heptan-4-yl}methanesulfonamide], the half-maximal effective concentration (EC50) is 247 nM.

`CCS(=O)(=O)N[C@H]1C2CC(C2)N(C(=O)C(C)(C)O)[C@H]1Cc1cccc(-c2cc(F)cc(F)c2)c1F` (single isomer, unassigned) [Example 3]: the concentration for a half-maximal effect (EC50) is 92 nM. The figure for `C[C@@H](O)C(=O)N1C2CC(C2)[C@H](NS(C)(=O)=O)[C@@H]1Cc1cccc(-c2cccc(C3CC3)c2)c1F` [Example 41, N-{(3S,4S)-3-[(3'-Cyclopropyl-2-fluoro[biphenyl]-3-yl)methyl]-2-[(2R)-2-hydroxypropanoyl]-2-azabicyclo[3.1.1]heptan-4-yl}methanesulfonamide] is 31 nM. The figure for `C[C@@H](O)C(=O)N1C2CC(C2)[C@H](NS(C)(=O)=O)[C@@H]1Cc1cccc(-c2cccc(OC(F)(F)F)c2)c1F` [Example 42, N-{(3S,4S)-3-{[2-Fluoro-3'-(trifluoromethoxy)[biphenyl]-3-yl]methyl}-2-[(2R)-2-hydroxypropanoyl]-2-azabicyclo[3.1.1]heptan-4-yl}methanesulfonamide] is 28 nM; for `Cc1cccc(-c2cccc(C[C@H]3[C@@H](NS(C)(=O)=O)C4CC(C4)N3C(=O)C(C)(C)O)c2F)c1` [Example 11, N-[(3S,4S)-3-[(2-Fluoro-3'-methyl[biphenyl]-3-yl)methyl]-2-(2-hydroxy-2-methylpropanoyl)-2-azabicyclo[3.1.1]heptan-4-yl]methanesulfonamide] it is 60 nM.

With `CCNC(=O)N1C2CC(C2)[C@H](NS(C)(=O)=O)[C@@H]1Cc1cccc(-c2ccccc2)c1F` [Example 37, (3S,4S)-N-Ethyl-3-[(2-fluoro[biphenyl]-3-yl)methyl]-4-[(methylsulfonyl)amino]-2-azabicyclo[3.1.1]heptane-2-carboxamide], the 50% effective concentration (EC50) is 18 nM.
